Key:
Mature human adipocytes [1] = assay: Lipolytic effect, daily titration of released glycerol over 3 days; assay type: cell-based; conditions: Caffeine 300ppm; for activation at 300 ppm: Homo sapiens, Adipocyte, read-out: released glycerol, versus negative control
Description: (§1) Mature human adipocytes were treated with zerumbone to evaluate daily for 3 days. A daily titration of the released glycerol, reflecting lipolysis, was measured in the medium, before the media were changed in order to monitor the long-term effect.
In a second test, mature human adipocytes were treated with the product to evaluate daily for 3 days. A daily titration of the released glycerol was performed in the media, just before changing of the media in order to monitor the long term effect. Table 19: Comparison of the lipolytic effect of caffeine, zerumbone and of a mixture of caffeine and zerumbone on hypertrophied adipocytes in monolayer (n=4) at short and long term.

Mature human adipocytes [2] = assay: Lipolytic effect, released glycerol after 3 hours; assay type: cell-based; conditions: Adipocyte, Caffeine 300ppm, contact time 3h, read-out: released glycerol, versus negative control
Description: In a first test, mature human adipocytes were treated with the product to evaluate for 3 hours, then titration of the released glycerol, reflecting lipolysis, was measured in the medium.

mature adipocytes = assay: Intracellular triglyceride quantity in mature adipocytes; assay type: cell-based, human; conditions: Caffeine 300ppm
Description: as §1
Table 5: comparison of the intracellula triglyceride quantity found in mature adipocytes
Table 20: Comparison of the intracellular triglyceride content found in the mature adipocytes; compared effect of zerumbone, caffeine and of a mixture of zerumbone and caffeine.

BSA = assay: Anti-glycation activity, BSA and fructose, fluorescence; assay type: biochemical; conditions: positive control at 0.03%
Text: The anti-glycation effect of the extract of Globularia cordifolia was studied using a protein model, the BSA, and a natural reducing sugar, fructose which glycates, i.e. binds, to the protein in a non-enzymatic manner. The product of this binding is fluorescent and is monitored with a fluorimeter.

Sirtuin-1 = Sirtuin-1 level in keratinocytes, ELISA; assay type: cell-based; conditions: Homo sapiens, Keratinocyte, 144 h, positive control at 500µm, read-out: Sirtuin-1 % Variation
Description: Human keratinocytes were cultured in the presence or absence of the Globularia cordifolia extract for 6 days and were then grinded and the intracellular levels of sirtuin-1 were measured using an ELISA method. Results were standardized by parallel measurement of total protein (BCA).

For `Cn1c(=O)c2c(ncn2C)n(C)c1=O` [Caffeine, caffeine], the “released glycerol, versus negative control” value (Mature human adipocytes [1]; contact time 1 day) was “+200%”, the activation at 300 ppm (Mature human adipocytes [1]; 24 h, contact time 1 day) was 200% and the activation at 300 ppm (Mature human adipocytes [1]; 48 h, contact time 2 days) was 34%. It also gave an activation at 300 ppm (Mature human adipocytes [1]; 72 h, contact time 3 days) of 18%, an activation at 300 ppm (Mature human adipocytes [2]) of 171% and a Triglycerides (mature adipocytes) of 7120 ± 542 µM/10^6 cell. The inhibition at 300 ppm (mature adipocytes; Homo sapiens, Adipocyte, 72 h, dns, read-out: Triglycerides Variation (%)) was 9%.

For `N=C(N)NN` [aminoguanidine], the “Glycation % Variation” value (BSA) was -85%.

`Cc1c(C)c2c(c(C)c1O)CCC(C)(C(=O)O)O2` (stereo not drawn) [Trolox] gave an activation at 500 µM (Sirtuin-1) of 27%.

From EP2802310B1, “NEW USE OF ZERUMBONE AND COMPOSITIONS COMPRISING ZERUMBONE” (Sederma, priority 2012, dated 2013)
